Assay results as given in patent US20030036111A1, “Mitochondrial protein” (priority 2001, published 2003).

Key:
Format in all cases: biochemical
[1] = target: T1, human DNC (mitochondrial deoxynucleotide carrier) (Homo sapiens, UniProt Q9HC21); assay: Homo-exchange of other carrier substrates in DNC proteoliposomes; conditions: internal concentration 10 mM; external concentration 1 mM
T1 construct: Amino acids are numbered from 1-320; made in house; host or cells: E. coli BL21(DE3), pET21b; inclusion bodies solubilized in sarkosyl, Ni-NTA purified
T1 sequence (Q9HC21 2-320 limits assumed): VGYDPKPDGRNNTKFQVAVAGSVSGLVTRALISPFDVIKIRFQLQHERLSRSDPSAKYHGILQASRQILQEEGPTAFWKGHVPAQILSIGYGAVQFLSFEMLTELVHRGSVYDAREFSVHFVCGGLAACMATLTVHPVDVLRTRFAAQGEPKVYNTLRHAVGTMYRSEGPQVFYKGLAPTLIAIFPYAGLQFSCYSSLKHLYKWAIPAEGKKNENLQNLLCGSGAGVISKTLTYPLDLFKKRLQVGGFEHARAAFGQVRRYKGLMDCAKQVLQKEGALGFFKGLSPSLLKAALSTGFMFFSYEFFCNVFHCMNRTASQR
Protocol: (§1) The recombinant protein in sarkosyl was reconstituted into liposomes in the presence of substrates (10). […] Transport was measured at 25° C. with internal and external pHs at 6.8. It was started by adding [α-35S]dATP or [^14C]-ADP and terminated after 2 min by addition of 100 mM of p-chloromercuribenzene sulfonate (10). Entrapped radioactivity was counted (10). The initial transport rate was calculated from the radioactivity taken up by proteoliposomes within 2 min (in the initial linear range). Other transport activities were assayed similarly (10).

[2] = target: T1, human DNC (mitochondrial deoxynucleotide carrier); assay: Dependence of DNC activity ([α-35S]dATP uptake) on internal substrate; conditions: internal substrate 10 mM; 2 min
Protocol: FIG. 3. Time course of dATP/ADP exchange and substrate specificity of human DNC. (a) Time course of [α-35 S]dATP/ADP exchange in proteoliposomes reconstituted with the recombinant DNC. [α-35 S]dATP (1 mM) was added to proteoliposomes containing 10 mM ADP (⋄) or 10 mM NaCl (∇). (b) Dependence of DNC activity on internal substrate. Proteoliposomes were preloaded internally with various substrates (concentration 10 mM). Trans-port was started by addition of […] [α-35 S]dATP and stopped after 2 min. The values are means 6 SD of at least three experiments. (c) Inhibition of the rate of [α-35 S]dATP uptake by external substrates. Proteoliposomes were preloaded internally with 10 mM ADP. […] External substrates (concentration 0.5 mM) were added together with [α-35 S]dATP. The extents of inhibition (%) from a representative experiment are reported.
as §1

[3] = target: T1, human DNC (mitochondrial deoxynucleotide carrier); assay: Kinetics of [α-35S]dATP/ADP exchange in proteoliposomes reconstituted with recombinant DNC; conditions: for Km: external substrate, internal ADP or dADP 10 mM, read-out: transport affinity (Km)
Protocol: FIG. 3. Time course of dATP/ADP exchange and substrate specificity of human DNC. (a) Time course of [α-35 S]dATP/ADP exchange in proteoliposomes reconstituted with the recombinant DNC. [α-35 S]dATP (1 mM) was added to proteoliposomes containing 10 mM ADP (⋄) or 10 mM NaCl (∇). (b) Dependence of DNC activity on internal substrate. Proteoliposomes were preloaded internally with various substrates (concentration 10 mM). Trans-port was started by addition of […] [α-35 S]dATP and stopped after 2 min. The values are means 6 SD of at least three experiments. (c) Inhibition of the rate of [α-35 S]dATP uptake by external substrates. Proteoliposomes were preloaded internally with 10 mM ADP. Transport was started by adding […] [α-35 S]dATP and stopped after 2 min. External substrates (concentration 0.5 mM) were added together with [α-35 S]dATP. The extents of inhibition (%) from a representative experiment are reported. The control value for uninhibited exchange was 0.45 mmol/min per gram of protein.
The recombinant protein in sarkosyl was reconstituted into liposomes in the presence of substrates (10). Both cardiolipin (1.14 mg/ml) and EDTA (1 mM) were added. Transport was measured at 25° C. with internal and external pHs at 6.8. It was started by adding [α-35S]dATP or [^14C]-ADP and terminated after 2 min by addition of 100 mM of p-chloromercuribenzene sulfonate (10). Entrapped radioactivity was counted (10). The initial transport rate was calculated from the radioactivity taken up by proteoliposomes within 2 min (in the initial linear range). Other transport activities were assayed similarly (10). The amount of DNC incorporated into liposomes was measured as described (11) and varied between 15 and 20% of the protein added to the reconstitution mixture.

homo-exchange catalysed by reconstituted DNC [1] | rate of [α-35 S]dATP uptake into proteoliposomes with internal substrate [2] | Km [3] | rate constant of exchange of [α-35 S]dATP for dADP or ADP (first-order kinetics) ([3]; reconstituted human DNC, 25° C., pH 6.8) | SMILES
did not catalyse |  |  |  | NC(=O)CC[C@H](N)C(=O)O [glutamine]
did not catalyse |  |  |  | NCCC[C@H](N)C(=O)O [ornithine]
did not catalyse |  |  |  | O=C(O)/C=C/C(=O)O [fumarate]

The remaining lines, values behind:

SMILES | homo-exchange catalysed by reconstituted DNC [1] | rate of [α-35 S]dATP uptake into proteoliposomes with internal substrate [2] | Km [3] | rate constant of exchange of [α-35 S]dATP for dADP or ADP (first-order kinetics) ([3]; reconstituted human DNC, 25° C., pH 6.8)
O=C(O)CCC(=O)C(=O)O [oxoglutarate] | did not catalyse | virtually no activity |  | 
C[N+](C)(C)CC(O)CC(=O)[O-] (stereo not drawn) [carnitine] | did not catalyse | virtually no activity |  | 
Nc1ncnc2c1ncn2[C@H]1C[C@H](O)[C@@H](COP(=O)(O)OP(=O)(O)OP(=O)(O)O)O1 [dATP] |  |  | 106 ± 15 µM | 0.02 min⁻¹
Nc1ncnc2c1ncn2[C@@H]1O[C@H](COP(=O)(O)OP(=O)(O)O)[C@@H](O)[C@H]1O [ADP] |  | highest rates | 42.6 ± 4.7 µM | 
N[C@@H](CCC(=O)O)C(=O)O [glutamate] | did not catalyse |  |  | 
